Test results published in ChEMBL document CHEMBL4346705, “(±)-trans-Dihydronarciclasine and (±)-trans-dihydrolycoricidine analogues modified in their ring A: Evaluation of their anticancer activity and a SAR study” (2019).

Columns and labels:
Format in all cases: functional
[1] = tested on: HCC 2998; test: Antiproliferative activity against human HCC2998 cells assessed as cell viability at 10^-5 M incubated for 48 hrs by sulforhodamine B assay relative to control; settings: HCC 2998, 48 h, read-out: Activity
[2] = tested on: RXF 393; test: Antiproliferative activity against human RXF393 cells assessed as cell viability at 10^-5 M incubated for 48 hrs by sulforhodamine B assay relative to control; settings: RXF 393, 48 h, read-out: Activity
[3] = tested on: OVCAR-8; test: Antiproliferative activity against human OVCAR8 cells assessed as cell viability at 10^-5 M incubated for 48 hrs by sulforhodamine B assay relative to control; settings: OVCAR-8, 48 h, read-out: Activity
[4] = tested on: MDA-MB-231; test: Antiproliferative activity against human MDA-MB-231 cells assessed as cell viability at 10^-5 M incubated for 48 hrs by sulforhodamine B assay relative to control; settings: MDA-MB-231, 48 h, read-out: Activity
[5] = tested on: K562; test: Antiproliferative activity against human K562 cells assessed as cell viability at 10^-5 M incubated for 48 hrs by sulforhodamine B assay relative to control; settings: K562, 48 h, read-out: Activity
[6] = tested on: SK-MEL-5; test: Antiproliferative activity against human SK-MEL-5 cells assessed as cell viability at 10^-5 M incubated for 48 hrs by sulforhodamine B assay relative to control; settings: SK-MEL-5, 48 h, read-out: Activity
[7] = tested on: COLO 205; test: Antiproliferative activity against human COLO205 cells assessed as cell viability at 10^-5 M incubated for 48 hrs by sulforhodamine B assay relative to control; settings: COLO 205, 48 h, read-out: Activity
[8] = tested on: Hs-578T; test: Antiproliferative activity against human Hs 578T cells assessed as cell viability at 10^-5 M incubated for 48 hrs by sulforhodamine B assay relative to control; settings: read-out: Activity
[9] = tested on: CAKI-1; test: Antiproliferative activity against human Caki1 cells assessed as cell viability at 10^-5 M incubated for 48 hrs by sulforhodamine B assay relative to control; settings: CAKI-1, 48 h, read-out: Activity
[10] = tested on: HCT-116; test: Antiproliferative activity against human HCT116 cells assessed as cell viability at 10^-5 M incubated for 48 hrs by sulforhodamine B assay relative to control; settings: HCT-116, 48 h, read-out: Activity
[11] = tested on: CCRF-CEM; test: Antiproliferative activity against human CCRF-CEM cells assessed as cell viability at 10^-5 M incubated for 48 hrs by sulforhodamine B assay relative to control; settings: read-out: Activity
[12] = tested on: UACC-257; test: Antiproliferative activity against human UACC257 cells assessed as cell viability at 10^-5 M incubated for 48 hrs by sulforhodamine B assay relative to control; settings: UACC-257, 48 h, read-out: Activity
[13] = tested on: 786-0; test: Antiproliferative activity against human 786-0 cells assessed as cell viability at 10^-5 M incubated for 48 hrs by sulforhodamine B assay relative to control; settings: 786-0, 48 h, read-out: Activity
[14] = tested on: NCI/ADR-RES; test: Antiproliferative activity against human NCI-ADR-RES cells assessed as cell viability at 10^-5 M incubated for 48 hrs by sulforhodamine B assay relative to control; settings: read-out: Activity
[15] = tested on: HOP-62; test: Antiproliferative activity against human HOP62 cells assessed as cell viability at 10^-5 M incubated for 48 hrs by sulforhodamine B assay relative to control; settings: HOP-62, 48 h, read-out: Activity
[16] = tested on: NCI-H226; test: Antiproliferative activity against human NCI-H226 cells assessed as cell viability at 10^-5 M incubated for 48 hrs by sulforhodamine B assay relative to control; settings: NCI-H226, 48 h, read-out: Activity
[17] = tested on: NCI-H460; test: Antiproliferative activity against human NCI-H460 cells assessed as cell viability at 10^-5 M incubated for 48 hrs by sulforhodamine B assay relative to control; settings: NCI-H460, 48 h, read-out: Activity
[18] = tested on: IGROV-1; test: Antiproliferative activity against human IGROV1 cells assessed as cell viability at 10^-5 M incubated for 48 hrs by sulforhodamine B assay relative to control; settings: IGROV-1, 48 h, read-out: Activity
[19] = tested on: Malme-3M; test: Antiproliferative activity against human MALME-3M cells assessed as cell viability at 10^-5 M incubated for 48 hrs by sulforhodamine B assay relative to control; settings: read-out: Activity
[20] = tested on: SF-295; test: Antiproliferative activity against human SF295 cells assessed as cell viability at 10^-5 M incubated for 48 hrs by sulforhodamine B assay relative to control; settings: SF-295, 48 h, read-out: Activity
[21] = tested on: MDA-MB-468; test: Antiproliferative activity against human MDA-MB-468 cells assessed as cell viability at 10^-5 M incubated for 48 hrs by sulforhodamine B assay relative to control; settings: MDA-MB-468, 48 h, read-out: Activity
[22] = tested on: SK-MEL-2; test: Antiproliferative activity against human SK-MEL-2 cells assessed as cell viability at 10^-5 M incubated for 48 hrs by sulforhodamine B assay relative to control; settings: SK-MEL-2, 48 h, read-out: Activity
[23] = tested on: A498; test: Antiproliferative activity against human A498 cells assessed as cell viability at 10^-5 M incubated for 48 hrs by sulforhodamine B assay relative to control; settings: A498, 48 h, read-out: Activity
[24] = tested on: BT-549; test: Antiproliferative activity against human BT549 cells assessed as cell viability at 10^-5 M incubated for 48 hrs by sulforhodamine B assay relative to control; settings: BT-549, 48 h, read-out: Activity
[25] = tested on: EKVX; test: Antiproliferative activity against human EKVX cells assessed as cell viability at 10^-5 M incubated for 48 hrs by sulforhodamine B assay relative to control; settings: read-out: Activity
[26] = tested on: SR; test: Antiproliferative activity against human SR cells assessed as cell viability at 10^-5 M incubated for 48 hrs by sulforhodamine B assay relative to control; settings: read-out: Activity
[27] = tested on: RPMI-8226; test: Antiproliferative activity against human RPMI8226 cells assessed as cell viability at 10^-5 M incubated for 48 hrs by sulforhodamine B assay relative to control; settings: RPMI-8226, 48 h, read-out: Activity
[28] = tested on: SK-MEL-28; test: Antiproliferative activity against human SK-MEL-28 cells assessed as cell viability at 10^-5 M incubated for 48 hrs by sulforhodamine B assay relative to control; settings: SK-MEL-28, 48 h, read-out: Activity

SMILES | viability at 10 µM [1] | viability at 10 µM [2] | viability at 10 µM [3] | viability at 10 µM [4] | viability at 10 µM [5] | viability at 10 µM [6] | viability at 10 µM [7] | viability at 10 µM [8] | viability at 10 µM [9] | viability at 10 µM [10] | viability at 10 µM [11] | viability at 10 µM [12] | viability at 10 µM [13] | viability at 10 µM [14] | viability at 10 µM [15] | viability at 10 µM [16] | viability at 10 µM [17] | viability at 10 µM [18] | viability at 10 µM [19] | viability at 10 µM [20] | also measured
O=C1NC2C(CC(O)C(O)C2O)c2cc3c(cc21)OCCO3 (racemic) | 109% | 116% | 107% | 109% | 104% | 102% | 111% | 96.9% | 94.4% | 95.5% | 106% | 107% | 102% | 107% | 103% | 97.7% | 107% | 103% | 105% | 101% | viability at 10 µM [21]: 107%; viability at 10 µM [22]: 109%; viability at 10 µM [23]: 108%; viability at 10 µM [24]: 98.3%; viability at 10 µM [25]: 97.4%; viability at 10 µM [26]: 107%; viability at 10 µM [27]: 107%
CCOc1c(OC)cc2c(c1OCC)C(=O)NC1C2CC(O)C(O)C1O (racemic) | 104% | 104% | 97.1% | 107% | 91.8% | 99.8% | 113% | 99.3% | 85.2% | 100% | 102% | 103% | 103% | 109% | 106% | 97.4% | 107% | 103% | 103% | 98.7% | viability at 10 µM [21]: 98.1%; viability at 10 µM [22]: 103%; viability at 10 µM [23]: 110%; viability at 10 µM [28]: 108%; viability at 10 µM [24]: 103%; viability at 10 µM [25]: 97.5%; viability at 10 µM [26]: 90.3%; viability at 10 µM [27]: 106%
CCOc1cc2c(c(O)c1OCC)C(=O)NC1C2CC(O)C(O)C1O (racemic) | 101% | 104% | 97% | 103% | 93.8% | 102% | 110% | 89.9% | 95.7% | 104% | 103% | 99.8% | 94.1% | 107% | 101% | 105% | 113% | 109% | 102% | 98.7% | viability at 10 µM [21]: 94.8%; viability at 10 µM [22]: 109%; viability at 10 µM [23]: 98.7%; viability at 10 µM [28]: 105%; viability at 10 µM [24]: 100%; viability at 10 µM [25]: 99.7%; viability at 10 µM [26]: 91.7%; viability at 10 µM [27]: 102%
CCOc1cc2c(c(OCC)c1OCC)C(=O)NC1C2CC(O)C(O)C1O (racemic) | 107% | 110% | 102% | 121% | 98.4% | 107% | 115% | 99.1% | 94.2% | 101% | 99.1% | 101% | 97.9% | 108% | 102% | 96.3% | 109% | 108% | 112% | 100% | viability at 10 µM [21]: 107%; viability at 10 µM [22]: 99.2%; viability at 10 µM [23]: 102%; viability at 10 µM [28]: 107%; viability at 10 µM [24]: 108%; viability at 10 µM [25]: 97.3%; viability at 10 µM [26]: 96.2%; viability at 10 µM [27]: 102%
COc1c2c(cc3c1C(=O)NC1C3CC(O)C(O)C1O)OCCO2 (racemic) | 106% | 102% | 100% | 109% | 95.6% | 99% | 103% | 96.2% | 94% | 102% | 105% | 98.8% | 97.4% | 113% | 99.9% | 92.7% | 109% | 109% | 106% | 99.6% | viability at 10 µM [21]: 93.1%; viability at 10 µM [22]: 100%; viability at 10 µM [23]: 104%; viability at 10 µM [28]: 106%; viability at 10 µM [24]: 99.5%; viability at 10 µM [25]: 98.2%; viability at 10 µM [26]: 92.1%; viability at 10 µM [27]: 102%
COc1cc2c(c3c1OCCO3)C(=O)NC1C2CC(O)C(O)C1O (racemic) | 99.9% | 106% | 95.2% | 103% | 106% | 101% | 111% | 99.8% | 93.4% | 99.6% | 103% | 97.5% | 95.6% | 111% | 100% | 95.7% | 106% | 107% | 103% | 104% | viability at 10 µM [21]: 99.5%; viability at 10 µM [22]: 110%; viability at 10 µM [23]: 100%; viability at 10 µM [28]: 106%; viability at 10 µM [24]: 98.3%; viability at 10 µM [25]: 103%; viability at 10 µM [26]: 97.1%; viability at 10 µM [27]: 100%
CCCOc1cc2c(cc1OCC)C1CC(O)C(O)C(O)C1NC2=O (racemic) | 106% | 109% | 104% | 118% | 105% | 100% | 110% | 96.9% | 95.9% | 101% | 107% | 104% | 101% | 105% | 104% | 99.6% | 107% | 103% | 108% | 102% | viability at 10 µM [21]: 112%; viability at 10 µM [22]: 105%; viability at 10 µM [23]: 115%; viability at 10 µM [24]: 97.1%; viability at 10 µM [25]: 104%; viability at 10 µM [26]: 116%; viability at 10 µM [27]: 104%
